Laboratory results from ChEMBL document CHEMBL1909294, “Translating clinical findings into knowledge in drug safety evaluation--drug induced liver injury prediction system (DILIps)” (PLoS Comput Biol, 2011).

How the values were obtained:
Hepatotoxicity [1] = test system: Hepatotoxicity;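 on HepSE cholelithiasis: hepatic side effect score for cholelithiasis, drawn from the DILIps training data for predicting drug-induced liver injury; call rule not given here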; on HepSE hepatic failure: call rule not given here;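 on HepSE hepatitis: Hepatitis-related hepatic side effect score taken from the training data of DILIps, a prediction system for drug-induced liver injury; call rule not given here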;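 on HepSE hepatomegaly: hepatic side effect score for hepatomegaly, taken from the training set of the DILIps drug-induced liver injury prediction system; call rule not given here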;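 on HepSE jaundice: Jaundice-related hepatic side-effect score drawn from the training data of the DILIps (drug-induced liver injury prediction system); call rule not given here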; on HepSE liver disease: call rule not given here;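 on HepSE liver function tests abnormal: hepatic side effect score taken from the DILIps (drug-induced liver injury prediction system) training data, here covering abnormal liver function test findings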
Hepatotoxicity [2] = test system: Hepatotoxicity; remark: listed apart in the source;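 on HepSE cholelithiasis: hepatic side effect score for cholelithiasis, drawn from the DILIps training data for predicting drug-induced liver injury; call rule not given here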; on HepSE hepatic failure: call rule not given here;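 on HepSE hepatitis: Hepatitis-related hepatic side effect score taken from the training data of DILIps, a prediction system for drug-induced liver injury; call rule not given here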;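 on HepSE hepatomegaly: hepatic side effect score for hepatomegaly, taken from the training set of the DILIps drug-induced liver injury prediction system; call rule not given here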;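 on HepSE jaundice: Jaundice-related hepatic side-effect score drawn from the training data of the DILIps (drug-induced liver injury prediction system); call rule not given here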; on HepSE liver disease: call rule not given here;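 on HepSE liver function tests abnormal: hepatic side effect score taken from the DILIps (drug-induced liver injury prediction system) training data, here covering abnormal liver function test findings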
Hepatotoxicity [3] = test system: Hepatotoxicity; remark: listed apart in the source;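 on HepSE cholelithiasis: hepatic side effect score for cholelithiasis, drawn from the DILIps training data for predicting drug-induced liver injury; call rule not given here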; on HepSE hepatic failure: call rule not given here;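 on HepSE hepatitis: Hepatitis-related hepatic side effect score taken from the training data of DILIps, a prediction system for drug-induced liver injury; call rule not given here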;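 on HepSE hepatomegaly: hepatic side effect score for hepatomegaly, taken from the training set of the DILIps drug-induced liver injury prediction system; call rule not given here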;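 on HepSE jaundice: Jaundice-related hepatic side-effect score drawn from the training data of the DILIps (drug-induced liver injury prediction system); call rule not given here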; on HepSE liver disease: call rule not given here;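 on HepSE liver function tests abnormal: hepatic side effect score taken from the DILIps (drug-induced liver injury prediction system) training data, here covering abnormal liver function test findings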
Hepatotoxicity [4] = test system: Hepatotoxicity; remark: listed apart in the source; on HepSE hepatic failure: call rule not given here;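 on HepSE hepatitis: Hepatitis-related hepatic side effect score taken from the training data of DILIps, a prediction system for drug-induced liver injury; call rule not given here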;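 on HepSE hepatomegaly: hepatic side effect score for hepatomegaly, taken from the training set of the DILIps drug-induced liver injury prediction system; call rule not given here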;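 on HepSE jaundice: Jaundice-related hepatic side-effect score drawn from the training data of the DILIps (drug-induced liver injury prediction system); call rule not given here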; on HepSE liver disease: call rule not given here;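 on HepSE liver function tests abnormal: hepatic side effect score taken from the DILIps (drug-induced liver injury prediction system) training data, here covering abnormal liver function test findings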
Hepatotoxicity [5] = test system: Hepatotoxicity; remark: listed apart in the source; on HepSE hepatic failure: call rule not given here; on HepSE liver disease: call rule not given here
Hepatotoxicity [6] = test system: Hepatotoxicity; remark: listed apart in the source; on HepSE hepatic failure: call rule not given here; on HepSE liver disease: call rule not given here
Hepatotoxicity [7] = test system: Hepatotoxicity; remark: listed apart in the source
Hepatotoxicity [8] = test system: Hepatotoxicity; remark: listed apart in the source
Hepatotoxicity [9] = test system: Hepatotoxicity; remark: listed apart in the source
Hepatotoxicity [10] = test system: Hepatotoxicity; remark: listed apart in the source
Hepatotoxicity [11] = test system: Hepatotoxicity; remark: listed apart in the source
Hepatotoxicity [12] = test system: Hepatotoxicity; remark: listed apart in the source
Hepatotoxicity [13] = test system: Hepatotoxicity; remark: listed apart in the source
Hepatotoxicity [14] = test system: Hepatotoxicity; remark: listed apart in the source

| SMILES | HepSE_liver disease (Hepatotoxicity [1]) | HepSE_hepatic failure (Hepatotoxicity [2]) | HepSE_hepatitis (Hepatotoxicity [3]) | HepSE_jaundice (Hepatotoxicity [4]) | HepSE_liver function tests abnormal (Hepatotoxicity [5]) | HepSE_hepatomegaly (Hepatotoxicity [6]) | HepSE_cholelithiasis (Hepatotoxicity [7]) | HepSE_hepatic necrosis (Hepatotoxicity [8]) | HepSE_bilirubinemia (Hepatotoxicity [9]) | HepSE_cirrhosis (Hepatotoxicity [10]) | HepSE_Combined Scores (Hepatotoxicity [11]) | HepSE_elevated liver function tests (Hepatotoxicity [12]) | HepSE_cholecystitis (Hepatotoxicity [13]) | HepSE_liver fatty (Hepatotoxicity [14]) | also measured |
| --- | --- | --- | --- | --- | --- | --- | --- | --- | --- | --- | --- | --- | --- | --- | --- |
| CN(C)[C@@H]1C(O)=C(C(N)=O)C(=O)[C@@]2(O)C(O)=C3C(=O)c4c(O)cccc4[C@@](C)(O)[C@H]3C[C@@H]12 [TETRACYCLINE] | 0 | 1 | 0 | 0 | 0 | 0 | 0 | 0 | 0 | 0 | 1 | 0 | 0 | 0 |  |
| c1ccc2c(c1)CCCC2C1=NCCN1 (configuration not stated) [TETRAHYDROZOLINE] | 0 | 0 | 0 | 0 | 0 | 0 | 0 | 0 | 0 | 0 | 0 | 0 | 0 | 0 |  |
| O=C1CCC(N2C(=O)c3ccccc3C2=O)C(=O)N1 (configuration not stated) [THALIDOMIDE] | 0 | 0 | 1 | 1 | 0 | 1 | 0 | 0 | 1 | 0 | 4 | 0 | 0 | 0 |  |
| Cn1c(=O)c2[nH]cnc2n(C)c1=O.O [THEOPHYLLINE] | 0 | 0 | 0 | 0 | 0 | 0 | 0 | 0 | 0 | 0 | 0 | 0 | 0 | 0 |  |
| c1ccc2[nH]c(-c3cscn3)nc2c1 [THIABENDAZOLE] | 0 | 1 | 0 | 1 | 0 | 0 | 0 | 0 | 0 | 0 | 2 | 0 | 0 | 0 |  |
| CSc1ccc2c(c1)N(CCC1CCCCN1C)c1ccccc1S2 (configuration not stated) [THIORIDAZINE] | 0 | 0 | 0 | 1 | 0 | 0 | 0 | 0 | 0 | 0 | 1 | 0 | 0 | 0 |  |
| S=P(N1CC1)(N1CC1)N1CC1 [THIOTEPA] | 0 | 0 | 0 | 0 | 0 | 0 | 0 | 0 | 1 | 0 | 1 | 0 | 0 | 0 |  |
| Cc1ccsc1C(=CCCN1CCC[C@@H](C(=O)O)C1)c1sccc1C [TIAGABINE] | 0 | 0 | 0 | 0 | 1 | 1 | 1 | 0 | 0 | 0 | 4 | 0 | 1 | 0 |  |
| Clc1ccccc1CN1CCc2sccc2C1 [TICLOPIDINE] |  |  |  |  |  |  |  |  |  |  |  |  |  |  | HepSE_liver disease (Hepatotoxicity [1]; Liver): 0; HepSE_hepatic failure (Hepatotoxicity [2]; Liver): 1; HepSE_hepatitis (Hepatotoxicity [3]; Liver): 1; HepSE_jaundice (Hepatotoxicity [4]; Liver): 1; HepSE_liver function tests abnormal (Hepatotoxicity [5]; Liver): 0; HepSE_hepatomegaly (Hepatotoxicity [6]; Liver): 0; HepSE_cholelithiasis (Hepatotoxicity [7]; Liver): 0; HepSE_hepatic necrosis (Hepatotoxicity [8]; Liver): 1; HepSE_bilirubinemia (Hepatotoxicity [9]; Liver): 0; HepSE_cirrhosis (Hepatotoxicity [10]; Liver): 0; HepSE_Combined Scores (Hepatotoxicity [11]; Liver): 4; HepSE_elevated liver function tests (Hepatotoxicity [12]; Liver): 0; HepSE_cholecystitis (Hepatotoxicity [13]; Liver): 0; HepSE_liver fatty (Hepatotoxicity [14]; Liver): 0 |
| CN(C)c1cc(NC(=O)CNC(C)(C)C)c(O)c2c1C[C@H]1C[C@H]3[C@H](N(C)C)C(O)=C(C(N)=O)C(=O)[C@@]3(O)C(O)=C1C2=O [TIGECYCLINE] | 0 | 1 | 0 | 1 | 1 | 0 | 0 | 0 | 1 | 0 | 4 | 0 | 0 | 0 |  |
| O=P(O)(O)C(Sc1ccc(Cl)cc1)P(=O)(O)O [TILUDRONIC ACID] | 0 | 0 | 0 | 0 | 0 | 0 | 0 | 0 | 0 | 0 | 0 | 0 | 0 | 0 |  |
| CC(C)(C)NC[C@H](O)COc1nsnc1N1CCOCC1 [TIMOLOL] | 0 | 0 | 0 | 0 | 0 | 1 | 0 | 0 | 0 | 0 | 1 | 0 | 0 | 0 |  |
| CCS(=O)(=O)CCn1c([N+](=O)[O-])cnc1C [TINIDAZOLE] | 0 | 0 | 0 | 0 | 0 | 0 | 0 | 0 | 0 | 0 | 0 | 0 | 0 | 0 |  |
| C[N+]1(C)[C@@H]2C[C@@H](OC(=O)C(O)(c3cccs3)c3cccs3)C[C@H]1[C@@H]1O[C@@H]12 [TIOTROPIUM] | 0 | 0 | 0 | 0 | 0 | 0 | 0 | 0 | 0 | 0 | 0 | 0 | 0 | 0 |  |
| CCCCS(=O)(=O)N[C@@H](Cc1ccc(OCCCCC2CCNCC2)cc1)C(=O)O [TIROFIBAN] |  |  |  |  |  |  |  |  |  |  |  |  |  |  | HepSE_liver disease (Hepatotoxicity [1]; Liver): 0; HepSE_hepatic failure (Hepatotoxicity [2]; Liver): 0; HepSE_hepatitis (Hepatotoxicity [3]; Liver): 0; HepSE_jaundice (Hepatotoxicity [4]; Liver): 0; HepSE_liver function tests abnormal (Hepatotoxicity [5]; Liver): 0; HepSE_hepatomegaly (Hepatotoxicity [6]; Liver): 0; HepSE_cholelithiasis (Hepatotoxicity [7]; Liver): 0; HepSE_hepatic necrosis (Hepatotoxicity [8]; Liver): 0; HepSE_bilirubinemia (Hepatotoxicity [9]; Liver): 0; HepSE_cirrhosis (Hepatotoxicity [10]; Liver): 0; HepSE_Combined Scores (Hepatotoxicity [11]; Liver): 0; HepSE_elevated liver function tests (Hepatotoxicity [12]; Liver): 0; HepSE_cholecystitis (Hepatotoxicity [13]; Liver): 0; HepSE_liver fatty (Hepatotoxicity [14]; Liver): 0 |
| Clc1ccc2nsnc2c1NC1=NCCN1 [TIZANIDINE] |  |  |  |  |  |  |  |  |  |  |  |  |  |  | HepSE_liver disease (Hepatotoxicity [1]; Liver): 1; HepSE_hepatic failure (Hepatotoxicity [2]; Liver): 1; HepSE_hepatitis (Hepatotoxicity [3]; Liver): 1; HepSE_jaundice (Hepatotoxicity [4]; Liver): 1; HepSE_liver function tests abnormal (Hepatotoxicity [5]; Liver): 1; HepSE_hepatomegaly (Hepatotoxicity [6]; Liver): 0; HepSE_cholelithiasis (Hepatotoxicity [7]; Liver): 1; HepSE_hepatic necrosis (Hepatotoxicity [8]; Liver): 1; HepSE_bilirubinemia (Hepatotoxicity [9]; Liver): 0; HepSE_cirrhosis (Hepatotoxicity [10]; Liver): 1; HepSE_Combined Scores (Hepatotoxicity [11]; Liver): 8; HepSE_elevated liver function tests (Hepatotoxicity [12]; Liver): 0; HepSE_cholecystitis (Hepatotoxicity [13]; Liver): 0; HepSE_liver fatty (Hepatotoxicity [14]; Liver): 0 |
| NC[C@H]1O[C@H](O[C@H]2[C@H](O)[C@@H](O[C@H]3O[C@H](CO)[C@@H](O)[C@H](N)[C@H]3O)[C@H](N)C[C@@H]2N)[C@H](N)C[C@@H]1O [TOBRAMYCIN] | 0 | 0 | 0 | 0 | 0 | 0 | 0 | 0 | 0 | 0 | 0 | 0 | 0 | 0 |  |
| Cc1ccc(S(=O)(=O)NC(=O)NN2CCCCCC2)cc1 [TOLAZAMIDE] | 0 | 0 | 0 | 1 | 0 | 0 | 0 | 0 | 0 | 0 | 1 | 0 | 0 | 0 |  |
